Where “and” joins values, the source holds several entries; their conditions need not be identical. Equal values may be shown once. Toxic doses and inconclusive results are not listed. How the source made its calls: active means survival T/C of 150% or more; inactive means T/C below 125% in these data.
Tested on: CD2F1 mice, L1210 leukemia ip, survival T/C
Test: NCI In Vivo Anticancer Drug Screen. Data for tumor model L1210 Leukemia (intraperitoneal) in CD2F1 (CDF1) mice
Settings: higher = longer survival
How it was run: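 Implant tumor; dose compound or vehicle; measure endpoint in both groups; report treated divided by control.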

[1] = endpoint: mean survival time, dose: 25.0 mg/kg/injection, schedule: Q04DX003 (ip), vehicle: saline
[2] = endpoint: mean survival time, dose: 50.0 mg/kg/injection, schedule: Q04DX003 (ip), vehicle: saline
[3] = endpoint: mean survival time, dose: 100.0 mg/kg/injection, schedule: Q04DX003 (ip), vehicle: saline
[4] = endpoint: mean survival time, dose: 100.0 mg/kg/injection, schedule: Q04DX003 (ip), vehicle: saline with Tween-80
[5] = endpoint: mean survival time, dose: 200.0 mg/kg/injection, schedule: Q04DX003 (ip), vehicle: saline with Tween-80
[6] = endpoint: mean survival time, dose: 50.0 mg/kg/injection, schedule: Q01DX001 (ip), vehicle: saline with Tween-80
[7] = endpoint: mean survival time, dose: 100.0 mg/kg/injection, schedule: Q01DX001 (ip), vehicle: saline with Tween-80
[8] = endpoint: mean survival time, dose: 100.0 mg/kg/injection, schedule: Q01DX009 (ip), vehicle: saline with Tween-80
[9] = endpoint: mean survival time, dose: 200.0 mg/kg/injection, schedule: Q01DX009 (ip), vehicle: saline with Tween-80
[10] = endpoint: mean survival time, dose: 400.0 mg/kg/injection, schedule: Q01DX009 (ip), vehicle: saline with Tween-80
[11] = endpoint: mean survival time, dose: 400.0 mg/kg/injection, schedule: Q04DX003 (ip), vehicle: saline with Tween-80
[12] = endpoint: mean survival time, dose: 100.0 mg/kg/injection, schedule: Q04DX002 (ip), vehicle: saline with Tween-80
[13] = endpoint: mean survival time, dose: 200.0 mg/kg/injection, schedule: Q04DX002 (ip), vehicle: saline with Tween-80
[14] = endpoint: mean survival time, dose: 400.0 mg/kg/injection, schedule: Q04DX002 (ip), vehicle: saline with Tween-80

Measured: T/C

Oc1c(Cl)c(Cl)c(Cl)c(Cl)c1Cl (tested in a mixture with another compound)
inactive: [1] 96 % of control | [2] 103 % of control | [3] 96 % of control

COC(C(=O)C(O)C(C)O)C1Cc2cc3cc(OC4CC(OC5CC(O)C(O)C(C)O5)C(O)C(C)O4)c(C)c(O)c3c(O)c2C(=O)C1OC1CC(OC2CC(O)C(OC3CC(C)(O)C(O)C(C)O3)C(C)O2)C(O)C(C)O1 (stereo not given)
inactive: endpoint: mean survival time, dose: 0.13 mg/kg/injection, schedule: Q01DX009 (ip), vehicle: saline 101 % of control | endpoint: mean survival time, dose: 0.25 mg/kg/injection, schedule: Q01DX009 (ip), vehicle: saline 97 % of control | endpoint: mean survival time, dose: 0.5 mg/kg/injection, schedule: Q01DX009 (ip), vehicle: saline 101 % of control | endpoint: mean survival time, dose: 1.0 mg/kg/injection, schedule: Q01DX009 (ip), vehicle: saline 95 % of control

COC(=O)Nc1cc2c3c(c1)CCCN3CCC2
inactive: [4] 104 % of control | [5] 93 % of control

Cc1ccc(S(=O)(=O)OCC(O)C(O)C(O)C(O)COS(=O)(=O)c2ccc(C)cc2)cc1 (stereo not given)
inactive: [6] 96 % of control | [7] 96 % of control | endpoint: mean survival time, dose: 200.0 mg/kg/injection, schedule: Q01DX001 (ip), vehicle: saline with Tween-80 96 % of control

CCC(C)(C)C1=C(N=[N+]=[N-])C(=O)C(C(C)(C)CC)=C(N=[N+]=[N-])C1=O
inactive: endpoint: mean survival time, dose: 100.0 mg/kg/injection, schedule: Q01DX001 (ip), vehicle: other 100 % of control | endpoint: mean survival time, dose: 200.0 mg/kg/injection, schedule: Q01DX001 (ip), vehicle: other 96 % of control | endpoint: mean survival time, dose: 400.0 mg/kg/injection, schedule: Q01DX001 (ip), vehicle: other 103 % of control

C(#Cc1ccccc1)/C=C/C=C/c1ccccc1
inactive: endpoint: mean survival time, dose: 25.0 mg/kg/injection, schedule: Q01DX001 (ip), vehicle: saline with Tween-80 95 % of control | [6] 87 % of control | [7] 87 % of control and 89 % of control

C=CCN(CC=C)C(=O)OCC
inactive: [8] 97 % of control | [3] 97 % of control | [9] 96 % of control | endpoint: mean survival time, dose: 200.0 mg/kg/injection, schedule: Q04DX003 (ip), vehicle: saline 95 % of control | endpoint: mean survival time, dose: 400.0 mg/kg/injection, schedule: Q04DX003 (ip), vehicle: saline 101 % of control

O=C1C=CC(=O)C1
inactive: endpoint: mean survival time, dose: 5.0 mg/kg/injection, schedule: Q04DX002 (ip), vehicle: saline with Tween-80 108 % of control

Cc1ncc(C(=O)O)n1Cc1ccccc1
inactive: [8] 94 % of control | [9] 94 % of control | [10] 92 % of control

O=C(O)CCS(=O)(=O)CCC(=O)O
inactive: [4] 92 % of control | [5] 93 % of control | [11] 90 % of control

CC(=O)Nc1nc(CCCCc2ccccc2)cc(=O)[nH]1
inactive: endpoint: mean survival time, dose: 37.5 mg/kg/injection, schedule: Q01DX001 (ip), vehicle: saline with Tween-80 100 % of control | endpoint: mean survival time, dose: 75.0 mg/kg/injection, schedule: Q01DX001 (ip), vehicle: saline with Tween-80 96 % of control | endpoint: mean survival time, dose: 150.0 mg/kg/injection, schedule: Q01DX001 (ip), vehicle: saline with Tween-80 94 % of control

NC(=O)C(c1cccs1)c1cccs1
inactive: [12] 93 % of control | [13] 87 % of control | [14] 90 % of control

CN(C)c1ccc(/C=N/NC(=O)c2ccccc2N)cc1
inactive: [8] 92 % of control | [9] 91 % of control | [10] 91 % of control

CCOC(=O)c1c(C)nc(C)c(C(=O)OCC)c1-c1ccc(N(C)C)cc1
inactive: [4] 104 % of control | [5] 98 % of control

CCCCCCCCOC(=O)c1c(Cl)c(Cl)c(C(=O)OCCCCCCCC)c(Cl)c1Cl
inactive: [8] 98 % of control | [4] 97 % of control | [9] 102 % of control | [5] 97 % of control | [10] 96 % of control | [11] 97 % of control

CC(=O)ON1C(=O)C=CC1=O
inactive: endpoint: mean survival time, dose: 25.0 mg/kg/injection, schedule: Q01DX009 (ip), vehicle: Klucel (hydroxypropylcellulose) (HPC) 95 % of control | endpoint: mean survival time, dose: 50.0 mg/kg/injection, schedule: Q01DX009 (ip), vehicle: Klucel (hydroxypropylcellulose) (HPC) 90 % of control

O=C(/C(=N\N=C\c1c(O)ccc2ccccc12)c1ccccc1)c1ccccc1
inactive: [8] 93 % of control | [9] 90 % of control | [10] 92 % of control

CC(=O)[C@H]1CC[C@H]2[C@@H]3CC[C@@H]4CC(=O)CC[C@]4(C)[C@H]3CC[C@]12C
inactive: [4] 96 % of control | [5] 96 % of control | [11] 96 % of control

CCCOP(=S)(NCCOC)OCCC
inactive: [4] 103 % of control | [5] 101 % of control | [11] 103 % of control

C=C1CC(C)(Cn2c(N)nc3nc[nH]c3c2=O)OC1=O (stereo not given)
inactive: endpoint: median survival time, dose: 5.38 mg/kg/injection, schedule: Q01DX005 (ip), vehicle: water 97 % of control | endpoint: median survival time, dose: 10.75 mg/kg/injection, schedule: Q01DX005 (ip), vehicle: water 97 % of control | endpoint: median survival time, dose: 21.5 mg/kg/injection, schedule: Q01DX005 (ip), vehicle: water 97 % of control | endpoint: median survival time, dose: 43.0 mg/kg/injection, schedule: Q01DX005 (ip), vehicle: water 112 % of control

NC(=O)OCCc1c2ccccc2[n+]([O-])c2ccccc12
inactive: endpoint: mean survival time, dose: 50.0 mg/kg/injection, schedule: Q04DX002 (ip), vehicle: saline with Tween-80 98 % of control | [12] 95 % of control | [13] 98 % of control | [14] 95 % of control

O=C(O)/C=N/NS(=O)(=O)c1ccccc1
inactive: endpoint: mean survival time, dose: 12.5 mg/kg/injection, schedule: Q01DX009 (ip), vehicle: water 99 % of control | endpoint: mean survival time, dose: 25.0 mg/kg/injection, schedule: Q01DX009 (ip), vehicle: water 103 % of control | endpoint: mean survival time, dose: 50.0 mg/kg/injection, schedule: Q01DX009 (ip), vehicle: water 113 % of control | endpoint: mean survival time, dose: 100.0 mg/kg/injection, schedule: Q01DX009 (ip), vehicle: water 114 % of control

C1CCN(CN2CCCCC2)CC1
inactive: endpoint: mean survival time, dose: 12.5 mg/kg/injection, schedule: Q01DX009 (ip), vehicle: saline 103 % of control | endpoint: mean survival time, dose: 25.0 mg/kg/injection, schedule: Q01DX009 (ip), vehicle: saline 98 % of control | [1] 90 % of control | endpoint: mean survival time, dose: 50.0 mg/kg/injection, schedule: Q01DX009 (ip), vehicle: saline 97 % of control | [2] 92 % of control

CC(=O)OCC(C)CCC(=O)C(C)C1C(=O)CC2C3CC=C4CC(OC(C)=O)CCC4(C)C3CCC21C (stereo not given)
inactive: [8] 100 % of control | [9] 97 % of control | [10] 91 % of control

N#CCCc1ccccc1
inactive: endpoint: mean survival time, dose: 3.13 mg/kg/injection, schedule: Q01DX009 (ip), vehicle: saline with Tween-80 97 % of control | endpoint: mean survival time, dose: 3.13 mg/kg/injection, schedule: Q04DX003 (ip), vehicle: saline 92 % of control | endpoint: mean survival time, dose: 6.25 mg/kg/injection, schedule: Q01DX009 (ip), vehicle: saline with Tween-80 94 % of control | endpoint: mean survival time, dose: 6.25 mg/kg/injection, schedule: Q04DX003 (ip), vehicle: saline 89 % of control | endpoint: mean survival time, dose: 12.5 mg/kg/injection, schedule: Q01DX009 (ip), vehicle: saline with Tween-80 94 % of control | endpoint: mean survival time, dose: 12.5 mg/kg/injection, schedule: Q04DX003 (ip), vehicle: saline with Tween-80 106 % of control | endpoint: mean survival time, dose: 12.5 mg/kg/injection, schedule: Q04DX003 (ip), vehicle: saline 92 % of control | endpoint: mean survival time, dose: 25.0 mg/kg/injection, schedule: Q04DX003 (ip), vehicle: saline with Tween-80 123 % of control | endpoint: mean survival time, dose: 50.0 mg/kg/injection, schedule: Q04DX003 (ip), vehicle: saline with Tween-80 92 % of control

O=C1CSC(=O)N1
inactive: [4] 94 % of control | [5] 93 % of control | [11] 92 % of control
